Starred links: 1 amine or outer side, 2 acyl side, 3 side chain; linkers in the order of their positions; H or OH if unused. Non-standard residues stand in square brackets, D forms with d. Residues, ends and D or L forms follow the SMILES beside them. *: point of attachment. Dolaproine = CO[C@@H]([C@@H]1CCCN1)[C@@H](C)C(=O)O; Dil = CC[C@H](C)[C@H](NC)[C@@H](CC(=O)O)OC; PABC = O=C(OCc1ccc(N[*:1])cc1)[*:2]; X1 = O=C(CCCC(=O)*)ON1C(=O)CCC1=O; X2 = C[C@@H](N*)[C@@H](O)c1ccccc1; Cit = NC(=O)NCCC[C@H](N)C(=O)O; NMeV = CN[C@H](C(=O)O)C(C)C
Tests used:
Type in all cases: in vivo, Mus musculus
CTG-0170 = experiment: Champions TumorGraft NSCLC PDX efficacy, model CTG-0170
Protocol: (§1) Mice were implanted subcutaneously into the left flank with tumor fragments from one of the various models. After tumors grew to an average of 150-300 mm^3, mice were treated by IV administration Q7Dx4 (n=2) with vehicle or 3 mg/kg of BT5528. Effects on tumor growth were evaluated by measuring percent tumor growth inhibition (% TGI), and the number of complete responders (CR), partial responders (PR), and tumor-free survivors (TFS). Tolerability was assessed by body weight loss, lethality, and clinical signs of adverse treatment-related side effects. Tumor volumes and body weights were measured twice a week.
(§2) Dosing solutions of BT5528 […] were pre-formulated. These dosing solutions were stored at −80° C. in the dark. On each day of dosing, a frozen aliquot of each test agent was thawed, stored at 2-8° C. and used for dosing.
(§3) The animals used in this study are described below: • Species: Mus musculus • Strain: Athymic Nude-Foxn1^nu (immune-compromised) • Source: Envigo (Indianapolis, Ind., USA) • Number of animals per group: 2 • Age and sex: At least 6-8 weeks of age at start of dosing, female • Weight: At least 18 grams at start of dosing • Acclimation period: 3 days
(§4) Stock mice were implanted with tumor cells from Champions TumorGraft® models CTG-0160, CTG-0170, CTG-0178, CTG-0192, CTG-0363, CTG-0808, CTG-0838, CTG-0848, CTG-1212, CTG-1502, CTG-1535, CTG-2011, CTG-2393, CTG-2539 or CTG-2540. After the tumors reached 1000-1500 mm^3, they were harvested and the tumor fragments (approximately 5×5×5 mm^3) were implanted SC in the left flank of the female study mice. Each animal was implanted with a specific passage lot and documented. Tumor growth was monitored twice a week using digital calipers and the tumor volume (TV) was calculated using the formula (0.52×[length×width^2]). When the TV reached an average volume of 150-300 mm^3, animals were matched by tumor size and assigned into Vehicle Control and treatment groups (n=2/group) and dosing was initiated on Day 0. After the initiation of dosing on Day 0, animals were weighed twice per week using a digital scale and TV was measured twice per week and also on the final day of study. The study was completed when the mean tumor volume of Vehicle Control reached 1500 mm^3 or up to Day 60, whichever occurred first.
(§5) Beginning on Day 0, animals were observed daily and weighed twice weekly using a digital scale; data including individual and mean gram weights, mean percent weight change versus Day 0 (% vD0) were recorded for each group and % vD0 plotted at study completion. […] Treatment resulting in a mean % vD0>20% and/or >10% mortality was considered above the maximum tolerated dose. Maximum mean % vD0 (weight nadir) for each treatment group was reported at study completion.
(§6) Inhibition of tumor growth was determined by calculating the percent TGI (100%×[1−(final MTV−initial MTV of a treated group)/(final MTV−initial MTV of the control group)]). Treatment started on Day 0.
(§7) Additional endpoints used to evaluate efficacy were: the number of complete responders (CR), partial responders (PR), and tumor-free survivors (TFS). PRs were considered exclusive of CRs, as were TFS.
(§8) Statistical analyses of anti-tumor efficacy were performed using one-way ANOVA followed by Dunnett's multiple comparisons test (GraphPad Prism version 8.2.0). Significant p-values=<0.05.
Animals were dosed according to the schedule on Table 7-1. The Vehicle Control group reached endpoint of average tumor volume >1500 mm^3 on Day 14 and was removed from the study. The study was terminated on Day 28. […] Therefore, the tumor volumes on Day 11 were used for analysis of anti-tumor activity in order to include all animals.

CTG-0192 = experiment: Champions TumorGraft NSCLC PDX efficacy, model CTG-0192
Protocol: (§9) Mice were implanted subcutaneously into the left flank with tumor fragments from one of the various models. […] Effects on tumor growth were evaluated by measuring percent tumor growth inhibition (% TGI), and the number of complete responders (CR), partial responders (PR), and tumor-free survivors (TFS). Tolerability was assessed by body weight loss, lethality, and clinical signs of adverse treatment-related side effects. Tumor volumes and body weights were measured twice a week.
as §2, §3, §4, §5, §6, §7, §8
Animals were dosed according to the schedule on Table 7-1. The study was terminated on Day 34.

CTG-1535 = experiment: Champions TumorGraft NSCLC PDX efficacy, model CTG-1535
Protocol: as §9, §2, §3, §4, §5, §6, §7, §8
Animals were dosed according to the schedule on Table 7-1. The study was terminated on Day 35.

CTG-2011 = experiment: Champions TumorGraft NSCLC PDX efficacy, model CTG-2011
Protocol: as §1, §2, §3, §4, §5, §6, §7, §8
Animals were dosed according to the schedule on Table 7-1. The Vehicle Control reached endpoint on Day 18 and the study was terminated on Day 28.

CTG-2539 = experiment: Champions TumorGraft NSCLC PDX efficacy, model CTG-2539
Protocol: as §9
[…] These dosing solutions were stored at −80° C. in the dark. On each day of dosing, a frozen aliquot of each test agent was thawed, stored at 2-8° C. and used for dosing.
as §3, §4, §5, §6, §7, §8
Animals were dosed according to the schedule on Table 7-1. The Vehicle Control reached endpoint on Day 21 and the BT5528 group reached endpoint on Day 18. The study was terminated on Day 25.

[1] = CTG-0170, 3 mg/kg IV Q7Dx4, Day 0-28
[2] = CTG-0192, 3 mg/kg IV Q7Dx5, Day 0-34
[3] = CTG-1535, 3 mg/kg IV Q7Dx5, Day 0-35
[4] = CTG-2011, 3 mg/kg IV Q7Dx4, Day 0-28
[5] = CTG-2539, 3 mg/kg IV Q7Dx3, Day 0-25

## CC[C@H](C)[C@@H]([C@@H](CC(=O)N1CCC[C@H]1[C@H](OC)[C@@H](C)C(=O)N[C@H](C)[C@@H](O)c1ccccc1)OC)N(C)C(=O)[C@@H](NC(=O)[C@H](C(C)C)N(C)C(=O)OCc1ccc(NC(=O)[C@H](CCCNC(N)=O)NC(=O)[C@@H](NC(=O)CCCC(=O)ON2C(=O)CCC2=O)C(C)C)cc1)C(C)C [BT5528] (X1-V[Cit][PABC][NMeV]V[Dil][Dolaproine]-X2)
CTG-0170; 3 mg/kg IV Q7Dx4
  body weight and tolerability of the other animal in the group: no body weight loss and tolerated the BT5528 well
  prior body weight loss of the animal found dead on Day 14: 24.8%
CTG-0170; 3 mg/kg IV Q7Dx4, Day 11
  MTV (mean tumor volume): 268±15 mm^3
  TGI: 94%
CTG-0170; 3 mg/kg IV Q7Dx4, n=2, cause of death unknown
  animals found dead: one animal in the BT5528 group was found dead on Day 14
CTG-0170; [1]
  # CR (complete responders): 0/0/0
  # PR (partial responders): 0/0/0
  # TFS (tumor-free survivors): 0/0/0
CTG-0170; CTG-0170, 3 mg/kg IV Q7Dx4, Day 11
  % TGI: 94%
CTG-0170; CTG-0170, BT5528 3 mg/kg IV Q7Dx4, Day 11, n=2
  Day 11 Tumor Volume Mean TV ± SEM: 268 ± 15 mm^3
CTG-0192; 3 mg/kg IV Q7Dx5, Day 7
  maximum mean body weight loss: 2.3%
CTG-0192; 3 mg/kg IV Q7Dx5, Day 34
  MTV (mean tumor volume): 740±386 mm^3
  TGI: 36%
CTG-0192; [2]
  # CR (complete responders): 0/0/0
  # PR (partial responders): 0/0/0
  # TFS (tumor-free survivors): 0/0/0
CTG-0192; CTG-0192, 3 mg/kg IV Q7Dx5, Day 34
  % TGI: 36%
CTG-0192; CTG-0192, BT5528 3 mg/kg IV Q7Dx5, Day 34, n=2
  Day 34 Tumor Volume Mean TV ± SEM: 740 ± 386 mm^3
CTG-1535; 3 mg/kg IV Q7Dx5, Day 35
  MTV (mean tumor volume): 307±91 mm^3
  TGI: 85%
CTG-1535; [3]
  # CR (complete responders): 0/0/0
  # PR (partial responders): 0/0/0
  # TFS (tumor-free survivors): 0/0/0
CTG-1535; CTG-1535, 3 mg/kg IV Q7Dx5, Day 35
  % TGI: 85%
CTG-1535; CTG-1535, BT5528 3 mg/kg IV Q7Dx5, Day 35, n=2
  Day 35 Tumor Volume Mean TV ± SEM: 307 ± 91 mm^3
CTG-2011; 3 mg/kg IV Q7Dx4, Day 18
  MTV (mean tumor volume): 826±48 mm^3
  TGI: 57%
CTG-2011; [4]
  # CR (complete responders): 0 /0/0
  # PR (partial responders): 0 /0/0
  # TFS (tumor-free survivors): 0 /0/0
CTG-2011; CTG-2011, 3 mg/kg IV Q7Dx4, Day 18
  % TGI: 57%
CTG-2011; CTG-2011, BT5528 3 mg/kg IV Q7Dx4, Day 18, n=2
  Day 18 Tumor Volume Mean TV ± SEM: 826 ± 48 mm^3
CTG-2539; 3 mg/kg IV Q7Dx3, Day 18
  MTV (mean tumor volume): 2029±594 mm^3
  TGI: −51%
CTG-2539; [5]
  # CR (complete responders): 0/0/0
  # PR (partial responders): 0/0/0
  # TFS (tumor-free survivors): 0/0/0
CTG-2539; CTG-2539, 3 mg/kg IV Q7Dx3, Day 18
  % TGI: −51%
CTG-2539; CTG-2539, BT5528 3 mg/kg IV Q7Dx3, Day 18, n=2
  Day 18 Tumor Volume Mean TV ± SEM: 2029 ± 594 mm^3
